# Measurements as given in US10273226B2, “Pyrazolyl-heteroarylamides as pesticides” (Bayer Animal Health GmbH, priority 2014, dated 2019).
# Tested on: Ctenocephalides felis
# Assay: Ctenocephalides felis in vitro contact test with adult cat fleas
# Assay type: in vivo
# Details: application rate 5 μg/cm^2 (500 g/ha); after 48 h; fleas dead or moribund
# Method in brief: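 Adult Ctenocephalides felis (5-10 per tube) were held 48 h at room temperature in tubes whose inner walls carried dried active ingredient, e.g. 5 μg/cm^2 from a 900 ppm acetone coating. Percent efficacy reflects fleas motionless or uncoordinated after being knocked to the tube base.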
row,Structure (SMILES),efficacy
1,Cn1nc(C(F)(F)C(F)(F)F)c(C(F)(F)F)c1-n1cc(-c2ccc(F)c(NC(=O)c3cccc(F)c3)c2)cn1 [Example 1-073],100%
2,Cn1nc(C(F)(F)C(F)(F)F)c(C(F)(F)F)c1-n1cc(-c2ccc(F)c(NC(=O)c3ccc(Cl)nc3)c2)cn1 [Example 1-099],100%
3,Cn1nc(C(F)(F)C(F)(F)F)c(C(F)(F)F)c1-n1cc(-c2ccc(F)c(NC(=O)c3ccc(C#N)nc3)c2)cn1 [Example 1-098],100%

# Tested on: Rhipicephalus sanguineus
# Assay: Rhipicephalus sanguineus in vitro contact test with adult brown dog ticks
# Assay type: in vivo
# Details: application rate 5 μg/cm^2 (500 g/ha); after 48 h; ticks dead or moribund
# Method in brief: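 Test tubes (25 ml) were coated by dissolving active ingredient in acetone p.a., diluting to the required concentration, and spreading 250 μl over the inner walls and base on an orbital shaker at 30 rpm for 2 h. Once dry, 5-10 adult Rhipicephalus sanguineus were added, and tubes were capped with perforated lids and kept horizontal in darkness at room temperature. At 48 h, ticks were knocked down and heated at 45-50° C. for up to 5 min. Those unable to climb away were counted dead or moribund, and efficacy ran from 0% to 100%.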
row,Structure (SMILES),efficacy
1,Cn1nc(C(F)(F)C(F)(F)F)c(C(F)(F)F)c1-n1cc(-c2ccc(F)c(NC(=O)c3cccc(F)c3)c2)cn1 [Example 1-073],100%
2,Cn1nc(C(F)(F)C(F)(F)F)c(C(F)(F)F)c1-n1cc(-c2ccc(F)c(NC(=O)c3ccc(Cl)nc3)c2)cn1 [Example 1-099],100%
3,Cn1nc(C(F)(F)C(F)(F)F)c(C(F)(F)F)c1-n1cc(-c2ccc(F)c(NC(=O)c3ccc(C#N)nc3)c2)cn1 [Example 1-098],80%

# Tested on: Boophilus microplus Parkhurst strain, SP-resistant
# Assay: Boophilus microplus dip test
# Assay type: in vivo
# Details: application rate 100 ppm, assessed after 7 days
# Procedure: Boophilus microplus—Dip Test
# Test animals: cattle ticks (Boophilus microplus) Parkhurst strain, SP-resistant
# Solvent: dimethyl sulphoxide
# 10 mg of active ingredient are dissolved in 0.5 ml of dimethyl sulphoxide. For the purpose of producing a suitable formulation, the active ingredient solution is diluted with water to the concentration desired in each case.
# This active ingredient formulation is pipetted into tubes. 8-10 adult engorged female cattle ticks (Boophilus microplus) are transferred into a further tube with holes. The tube is immersed into the active ingredient formulation, and all the ticks are completely wetted. After the liquid has run out, the ticks are transferred on filter discs into plastic dishes and stored in a climate-controlled room.
# Efficacy is assessed after 7 days by laying of fertile eggs. Eggs which are not visibly fertile are stored in a climate-controlled cabinet until the larvae hatch after about 42 days. An efficacy of 100% means that none of the ticks has laid any fertile eggs; 0% means that all the eggs are fertile.
row,Structure (SMILES),efficacy (laying of fertile eggs)
1,Cn1nc(C(F)(F)C(F)(F)F)c(C(F)(F)F)c1-n1cc(-c2ccc(F)c(NC(=O)c3cccc(F)c3)c2)cn1 [Example 1-073],100%
2,Cn1nc(C(F)(F)C(F)(F)F)c(C(F)(F)F)c1-n1cc(-c2ccc(F)c(NC(=O)c3ccc(Cl)nc3)c2)cn1 [Example 1-099],100%
3,Cn1nc(C(F)(F)C(F)(F)F)c(C(F)(F)F)c1-n1cc(-c2ccc(F)c(NC(=O)c3ccc(C#N)nc3)c2)cn1 [Example 1-098],100%

# Tested on: Boophilus microplus
# Assay: Boophilus microplus injection test
# Assay type: in vivo
# Details: application rate 20 μg/animal; injection into abdomen; assessed after 7 days
# Method in brief: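 Scoring was by fertile egg laying 7 days after injection, holding doubtful eggs until larvae hatched at about 42 days; 100% = no fertile eggs, 0% = all eggs fertile. Groups of 5 engorged adult female cattle ticks were each injected abdominally with 1 μl of compound in DMSO.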
row,Structure (SMILES),efficacy (laying of fertile eggs)
1,Cn1nc(C(F)(F)C(F)(F)F)c(C(F)(F)F)c1-n1cc(-c2ccc(F)c(NC(=O)c3cccc(F)c3)c2)cn1 [Example 1-073],100%
2,Cn1nc(C(F)(F)C(F)(F)F)c(C(F)(F)F)c1-n1cc(-c2ccc(F)c(NC(=O)c3ccc(Cl)nc3)c2)cn1 [Example 1-099],100%
3,Cn1nc(C(F)(F)C(F)(F)F)c(C(F)(F)F)c1-n1cc(-c2ccc(F)c(NC(=O)c3ccc(C#N)nc3)c2)cn1 [Example 1-098],100%

# Tested on: Ctenocephalides felis
# Assay: Ctenocephalides felis oral test
# Assay type: in vivo
# Details: application rate 100 ppm in citrated cattle blood; after 2 days
# Method in brief: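 DMSO stock, diluted in citrated cattle blood; ~20 unfed adult fleas feed through parafilm; % kill read at day 2 (0% = none killed).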
row,Structure (SMILES),efficacy (kill in %)
1,Cn1nc(C(F)(F)C(F)(F)F)c(C(F)(F)F)c1-n1cc(-c2ccc(F)c(NC(=O)c3cccc(F)c3)c2)cn1 [Example 1-073],100%
2,Cn1nc(C(F)(F)C(F)(F)F)c(C(F)(F)F)c1-n1cc(-c2ccc(F)c(NC(=O)c3ccc(Cl)nc3)c2)cn1 [Example 1-099],100%
3,Cn1nc(C(F)(F)C(F)(F)F)c(C(F)(F)F)c1-n1cc(-c2ccc(F)c(NC(=O)c3ccc(C#N)nc3)c2)cn1 [Example 1-098],100%

# Tested on: Lucilia cuprina
# Assay: Lucilia cuprina test
# Assay type: in vivo
# Details: application rate 100 ppm; L1 larvae; after 2 days
# Method in brief: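 Mortality read at 2 days as percent larvae killed (100% = all, 0% = none). Test used roughly 20 first-instar larvae on minced horsemeat dosed with water-diluted DMSO formulation of compound.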
row,Structure (SMILES),efficacy (kill in %)
1,Cn1nc(C(F)(F)C(F)(F)F)c(C(F)(F)F)c1-n1cc(-c2ccc(F)c(NC(=O)c3cccc(F)c3)c2)cn1 [Example 1-073],100%
2,Cn1nc(C(F)(F)C(F)(F)F)c(C(F)(F)F)c1-n1cc(-c2ccc(F)c(NC(=O)c3ccc(Cl)nc3)c2)cn1 [Example 1-099],100%
3,Cn1nc(C(F)(F)C(F)(F)F)c(C(F)(F)F)c1-n1cc(-c2ccc(F)c(NC(=O)c3ccc(C#N)nc3)c2)cn1 [Example 1-098],100%

# Tested on: Musca domestica
# Assay: Musca domestica test
# Assay type: in vivo
# Details: application rate 100 ppm; adult houseflies; after 2 days
# Method in brief: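 10 adult flies per vessel; sugar-solution sponge dosed with active ingredient formulation (DMSO concentrate diluted in water to desired concentration). Read-out: % kill at 2 days.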
row,Structure (SMILES),efficacy (kill in %)
1,Cn1nc(C(F)(F)C(F)(F)F)c(C(F)(F)F)c1-n1cc(-c2ccc(F)c(NC(=O)c3cccc(F)c3)c2)cn1 [Example 1-073],90%
2,Cn1nc(C(F)(F)C(F)(F)F)c(C(F)(F)F)c1-n1cc(-c2ccc(F)c(NC(=O)c3ccc(Cl)nc3)c2)cn1 [Example 1-099],100%

# Tested on: Myzus persicae
# Assay: Myzus persicae spray test
# Assay type: in vivo
# Details: application rate 100 g/ha; after 6 days
# Procedure: Myzus persicae—Spray Test
# To produce an appropriate active ingredient formulation, 1 part by weight of active ingredient is dissolved using the specified parts by weight of solvent and made up with water containing an emulsifier concentration of 1000 ppm until the desired concentration is attained. To produce further test concentrations, the preparation is diluted with emulsifier-containing water.
# Discs of Chinese cabbage leaves (Brassica pekinensis) infested by all stages of the green peach aphid (Myzus persicae) are sprayed with an active ingredient formulation of the desired concentration.
# After 6 days, efficacy in % is determined. 100% means that all the aphids have been killed; 0% means that none of the aphids have been killed.
row,Structure (SMILES),efficacy
1,Cn1nc(C(F)(F)C(F)(F)F)c(C(F)(F)F)c1-n1cc(-c2ccc(F)c(NC(=O)c3ccc(Cl)nc3)c2)cn1 [Example 1-099],100%
2,Cn1nc(C(F)(F)C(F)(F)F)c(C(F)(F)F)c1-n1cc(-c2ccc(F)c(NC(=O)c3ccc(C#N)nc3)c2)cn1 [Example 1-098],100%

# Tested on: Phaedon cochleariae
# Assay: Phaedon cochleariae spray test
# Assay type: in vivo
# Details: application rate 100 g/ha; larvae; after 7 days
# Method in brief: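 Mortality of Phaedon larvae, in %, was read 7 days after release onto sprayed, dried Brassica pekinensis leaf discs. Test dilutions were prepared in water with 1000 ppm emulsifier. A score of 0% means no larvae died and 100% means all were killed.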
row,Structure (SMILES),efficacy
1,Cn1nc(C(F)(F)C(F)(F)F)c(C(F)(F)F)c1-n1cc(-c2ccc(F)c(NC(=O)c3cccc(F)c3)c2)cn1 [Example 1-073],100%
2,Cn1nc(C(F)(F)C(F)(F)F)c(C(F)(F)F)c1-n1cc(-c2ccc(F)c(NC(=O)c3ccc(Cl)nc3)c2)cn1 [Example 1-099],100%
3,Cn1nc(C(F)(F)C(F)(F)F)c(C(F)(F)F)c1-n1cc(-c2ccc(F)c(NC(=O)c3ccc(C#N)nc3)c2)cn1 [Example 1-098],100%

# Tested on: Spodoptera frugiperda
# Assay: Spodoptera frugiperda spray test
# Assay type: in vivo
# Details: application rate 100 g/ha; caterpillars; after 7 days
# Method in brief: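 Percent kill of armyworm caterpillars was scored 7 days after they were placed on dried, sprayed Zea mays leaf discs. Spray solutions were made by dissolving active ingredient in solvent and diluting with 1000 ppm emulsifier water.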
row,Structure (SMILES),efficacy
1,Cn1nc(C(F)(F)C(F)(F)F)c(C(F)(F)F)c1-n1cc(-c2ccc(F)c(NC(=O)c3cccc(F)c3)c2)cn1 [Example 1-073],100%
2,Cn1nc(C(F)(F)C(F)(F)F)c(C(F)(F)F)c1-n1cc(-c2ccc(F)c(NC(=O)c3ccc(Cl)nc3)c2)cn1 [Example 1-099],100%
3,Cn1nc(C(F)(F)C(F)(F)F)c(C(F)(F)F)c1-n1cc(-c2ccc(F)c(NC(=O)c3ccc(C#N)nc3)c2)cn1 [Example 1-098],100%

# Tested on: Tetranychus urticae
# Assay: Tetranychus urticae spray test, OP-resistant
# Assay type: in vivo
# Details: application rate 100 g/ha; after 6 days
# Method in brief: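 Percent kill is assessed 6 days after spraying infested Phaseolus vulgaris leaf discs, with all mite stages present. Compound is applied as a solvent/emulsifier aqueous formulation at the desired concentration.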
row,Structure (SMILES),efficacy
1,Cn1nc(C(F)(F)C(F)(F)F)c(C(F)(F)F)c1-n1cc(-c2ccc(F)c(NC(=O)c3cccc(F)c3)c2)cn1 [Example 1-073],100%
2,Cn1nc(C(F)(F)C(F)(F)F)c(C(F)(F)F)c1-n1cc(-c2ccc(F)c(NC(=O)c3ccc(Cl)nc3)c2)cn1 [Example 1-099],100%
3,Cn1nc(C(F)(F)C(F)(F)F)c(C(F)(F)F)c1-n1cc(-c2ccc(F)c(NC(=O)c3ccc(C#N)nc3)c2)cn1 [Example 1-098],100%
